Results from the kinase profiling compilation of Christmann-Franck et al. (2016).
pKd: −log10 of the molar value.

Tests used:
Experiment in all cases: KINOMEscan competition binding
[1] = test system: ABL1 (human), P00519 [F317I]; settings: compound 10.0 µM
[2] = test system: ABL1 (human), P00519 [F317L]; settings: compound 10.0 µM
[3] = target: CAMKK1 (human) (UniProt Q8N5S9); settings: compound 10.0 µM
[4] = target: CSF1R (human) (UniProt P07333)
[5] = target: DCLK1 (human) (UniProt O15075)
[6] = target: DCLK2 (human) (UniProt Q8N568)
[7] = target: FGFR4 (human) (UniProt P22455); settings: compound 10.0 µM
[8] = target: FRK (human) (UniProt P42685)
[9] = target: GAK (human) (UniProt O14976)
[10] = target: KIT (human) (UniProt P10721); settings: compound 10.0 µM
[11] = test system: KIT (human), P10721 [V559D]; settings: compound 10.0 µM
[12] = target: MAPK7 (human) (UniProt Q13164)
[13] = target: MKNK2 (human) (UniProt Q9HBH9); settings: compound 10.0 µM
[14] = target: MYLK4 (human) (UniProt Q86YV6); settings: compound 10.0 µM
[15] = target: NUAK1 (human) (UniProt O60285); settings: compound 10.0 µM
[16] = target: PDGFRB (human) (UniProt P09619); settings: compound 10.0 µM
[17] = target: PLK4 (human) (UniProt O00444); settings: compound 10.0 µM
[18] = target: PRKD1 (human) (UniProt Q15139); settings: compound 10.0 µM
[19] = target: PRKD2 (human) (UniProt Q9BZL6); settings: compound 10.0 µM
[20] = target: PRKD3 (human) (UniProt O94806); settings: compound 10.0 µM
[21] = target: PTK6 (human) (UniProt Q13882)
[22] = target: RIPK2 (human) (UniProt O43353); settings: compound 10.0 µM
[23] = target: ROS1 (human) (UniProt P08922); settings: compound 10.0 µM
[24] = target: RPS6KA1 KD2 (human) (UniProt Q15418); settings: compound 10.0 µM
[25] = target: RPS6KA6 KD2 (human) (UniProt Q9UK32); settings: compound 10.0 µM
[26] = target: SGK110 (human) (UniProt P0C264); settings: compound 10.0 µM
[27] = target: SRMS (human) (UniProt Q9H3Y6); settings: compound 10.0 µM
[28] = target: TNK1 (human) (UniProt Q13470)
[29] = target: TNK2 (human) (UniProt Q07912); settings: compound 10.0 µM

TNK1 (human), sequence (Q13470 whole entry, looked up): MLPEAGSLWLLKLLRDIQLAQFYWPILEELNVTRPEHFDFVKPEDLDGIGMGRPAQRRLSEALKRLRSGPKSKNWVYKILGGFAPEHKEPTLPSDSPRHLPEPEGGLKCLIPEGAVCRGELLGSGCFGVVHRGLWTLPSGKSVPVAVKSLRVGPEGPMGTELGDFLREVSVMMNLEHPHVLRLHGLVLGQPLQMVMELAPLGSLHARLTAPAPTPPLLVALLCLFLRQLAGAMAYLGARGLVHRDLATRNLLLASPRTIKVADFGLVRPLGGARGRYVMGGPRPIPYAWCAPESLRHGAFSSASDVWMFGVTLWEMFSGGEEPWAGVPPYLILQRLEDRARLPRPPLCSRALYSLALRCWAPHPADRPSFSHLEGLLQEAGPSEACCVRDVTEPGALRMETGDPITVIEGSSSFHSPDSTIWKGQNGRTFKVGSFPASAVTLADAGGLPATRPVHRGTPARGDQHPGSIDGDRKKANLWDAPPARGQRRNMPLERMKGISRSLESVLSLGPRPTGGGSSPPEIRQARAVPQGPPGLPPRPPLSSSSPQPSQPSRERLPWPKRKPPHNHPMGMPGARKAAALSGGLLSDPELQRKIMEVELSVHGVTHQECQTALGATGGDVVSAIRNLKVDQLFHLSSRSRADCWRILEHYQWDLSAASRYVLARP
FRK (human), sequence (P42685 whole entry, looked up): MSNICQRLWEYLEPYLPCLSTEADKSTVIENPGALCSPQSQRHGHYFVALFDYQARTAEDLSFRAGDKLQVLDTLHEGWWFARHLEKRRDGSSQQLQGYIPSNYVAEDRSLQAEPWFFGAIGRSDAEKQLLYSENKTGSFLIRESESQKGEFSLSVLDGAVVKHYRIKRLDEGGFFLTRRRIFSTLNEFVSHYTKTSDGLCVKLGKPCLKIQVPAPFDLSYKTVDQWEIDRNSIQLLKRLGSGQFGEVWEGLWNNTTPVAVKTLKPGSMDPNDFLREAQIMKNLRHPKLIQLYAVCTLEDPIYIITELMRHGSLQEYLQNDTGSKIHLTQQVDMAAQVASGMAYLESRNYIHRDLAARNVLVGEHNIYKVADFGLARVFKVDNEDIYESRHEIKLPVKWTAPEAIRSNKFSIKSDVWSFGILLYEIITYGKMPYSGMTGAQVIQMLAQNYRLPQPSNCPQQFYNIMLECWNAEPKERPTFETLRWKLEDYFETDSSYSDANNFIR
CSF1R (human), sequence (P07333 whole entry, looked up): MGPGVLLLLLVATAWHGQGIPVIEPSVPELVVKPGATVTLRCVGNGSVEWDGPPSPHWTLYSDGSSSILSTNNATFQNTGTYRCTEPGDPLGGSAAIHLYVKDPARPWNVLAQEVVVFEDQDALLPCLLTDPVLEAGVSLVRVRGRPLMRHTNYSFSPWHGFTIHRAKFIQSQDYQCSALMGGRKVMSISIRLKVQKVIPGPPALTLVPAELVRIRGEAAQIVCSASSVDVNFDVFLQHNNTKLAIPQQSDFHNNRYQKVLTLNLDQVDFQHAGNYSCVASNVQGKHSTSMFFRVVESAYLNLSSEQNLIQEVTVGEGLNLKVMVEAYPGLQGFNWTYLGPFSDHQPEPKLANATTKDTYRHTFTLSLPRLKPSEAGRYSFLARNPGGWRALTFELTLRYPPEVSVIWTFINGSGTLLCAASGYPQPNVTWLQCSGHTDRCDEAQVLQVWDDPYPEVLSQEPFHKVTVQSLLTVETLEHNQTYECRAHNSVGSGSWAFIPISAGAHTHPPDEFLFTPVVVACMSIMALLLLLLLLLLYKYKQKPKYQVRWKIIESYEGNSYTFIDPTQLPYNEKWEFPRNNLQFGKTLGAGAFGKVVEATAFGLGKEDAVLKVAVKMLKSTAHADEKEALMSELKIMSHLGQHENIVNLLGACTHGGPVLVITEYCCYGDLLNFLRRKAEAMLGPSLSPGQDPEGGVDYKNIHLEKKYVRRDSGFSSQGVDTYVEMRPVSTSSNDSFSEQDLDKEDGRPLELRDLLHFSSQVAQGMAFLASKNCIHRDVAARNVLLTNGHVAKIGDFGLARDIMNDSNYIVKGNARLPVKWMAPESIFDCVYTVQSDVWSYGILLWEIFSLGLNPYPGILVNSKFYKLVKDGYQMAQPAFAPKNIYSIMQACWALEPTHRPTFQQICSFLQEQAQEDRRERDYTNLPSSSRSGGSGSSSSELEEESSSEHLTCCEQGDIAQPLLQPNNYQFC
DCLK1 (human), sequence (O15075 whole entry, looked up): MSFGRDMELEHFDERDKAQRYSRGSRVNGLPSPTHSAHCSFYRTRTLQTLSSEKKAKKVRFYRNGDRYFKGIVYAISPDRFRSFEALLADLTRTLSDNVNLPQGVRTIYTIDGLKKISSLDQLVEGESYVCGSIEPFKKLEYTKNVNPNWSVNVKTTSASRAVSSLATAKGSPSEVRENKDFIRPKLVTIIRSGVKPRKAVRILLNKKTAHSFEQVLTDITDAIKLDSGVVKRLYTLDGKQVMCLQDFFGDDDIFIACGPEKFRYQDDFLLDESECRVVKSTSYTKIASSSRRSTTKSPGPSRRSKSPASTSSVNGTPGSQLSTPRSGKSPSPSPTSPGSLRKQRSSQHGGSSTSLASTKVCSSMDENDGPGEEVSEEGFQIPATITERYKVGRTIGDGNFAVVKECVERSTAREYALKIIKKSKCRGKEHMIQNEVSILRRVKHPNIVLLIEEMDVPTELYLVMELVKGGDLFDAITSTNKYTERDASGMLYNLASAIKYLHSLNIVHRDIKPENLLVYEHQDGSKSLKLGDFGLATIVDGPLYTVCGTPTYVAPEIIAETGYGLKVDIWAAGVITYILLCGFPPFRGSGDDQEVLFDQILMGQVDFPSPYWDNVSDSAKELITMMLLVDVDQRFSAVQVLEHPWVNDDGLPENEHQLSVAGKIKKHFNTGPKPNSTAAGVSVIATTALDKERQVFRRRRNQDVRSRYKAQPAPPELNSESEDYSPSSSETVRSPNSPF
DCLK2 (human), sequence (Q8N568 whole entry, looked up): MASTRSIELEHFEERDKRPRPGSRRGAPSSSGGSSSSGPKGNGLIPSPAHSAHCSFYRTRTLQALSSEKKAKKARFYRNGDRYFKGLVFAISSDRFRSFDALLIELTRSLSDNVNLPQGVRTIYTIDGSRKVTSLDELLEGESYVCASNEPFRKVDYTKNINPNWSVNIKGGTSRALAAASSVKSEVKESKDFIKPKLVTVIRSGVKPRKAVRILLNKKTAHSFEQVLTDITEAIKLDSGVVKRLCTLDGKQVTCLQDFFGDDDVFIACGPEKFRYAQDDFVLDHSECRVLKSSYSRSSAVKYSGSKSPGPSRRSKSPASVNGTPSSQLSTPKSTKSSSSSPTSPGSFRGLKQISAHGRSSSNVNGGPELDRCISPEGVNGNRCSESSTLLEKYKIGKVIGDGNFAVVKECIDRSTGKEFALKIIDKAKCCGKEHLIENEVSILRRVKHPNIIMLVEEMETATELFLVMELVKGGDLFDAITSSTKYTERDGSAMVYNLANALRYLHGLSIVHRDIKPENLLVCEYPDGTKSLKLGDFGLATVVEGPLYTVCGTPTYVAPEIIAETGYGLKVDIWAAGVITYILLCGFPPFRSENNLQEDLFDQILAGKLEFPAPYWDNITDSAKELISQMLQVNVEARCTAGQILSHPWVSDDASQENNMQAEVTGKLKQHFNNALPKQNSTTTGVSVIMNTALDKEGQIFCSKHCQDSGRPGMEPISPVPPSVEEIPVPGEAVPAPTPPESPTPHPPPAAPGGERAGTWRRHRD
GAK (human), sequence (O14976 whole entry, looked up): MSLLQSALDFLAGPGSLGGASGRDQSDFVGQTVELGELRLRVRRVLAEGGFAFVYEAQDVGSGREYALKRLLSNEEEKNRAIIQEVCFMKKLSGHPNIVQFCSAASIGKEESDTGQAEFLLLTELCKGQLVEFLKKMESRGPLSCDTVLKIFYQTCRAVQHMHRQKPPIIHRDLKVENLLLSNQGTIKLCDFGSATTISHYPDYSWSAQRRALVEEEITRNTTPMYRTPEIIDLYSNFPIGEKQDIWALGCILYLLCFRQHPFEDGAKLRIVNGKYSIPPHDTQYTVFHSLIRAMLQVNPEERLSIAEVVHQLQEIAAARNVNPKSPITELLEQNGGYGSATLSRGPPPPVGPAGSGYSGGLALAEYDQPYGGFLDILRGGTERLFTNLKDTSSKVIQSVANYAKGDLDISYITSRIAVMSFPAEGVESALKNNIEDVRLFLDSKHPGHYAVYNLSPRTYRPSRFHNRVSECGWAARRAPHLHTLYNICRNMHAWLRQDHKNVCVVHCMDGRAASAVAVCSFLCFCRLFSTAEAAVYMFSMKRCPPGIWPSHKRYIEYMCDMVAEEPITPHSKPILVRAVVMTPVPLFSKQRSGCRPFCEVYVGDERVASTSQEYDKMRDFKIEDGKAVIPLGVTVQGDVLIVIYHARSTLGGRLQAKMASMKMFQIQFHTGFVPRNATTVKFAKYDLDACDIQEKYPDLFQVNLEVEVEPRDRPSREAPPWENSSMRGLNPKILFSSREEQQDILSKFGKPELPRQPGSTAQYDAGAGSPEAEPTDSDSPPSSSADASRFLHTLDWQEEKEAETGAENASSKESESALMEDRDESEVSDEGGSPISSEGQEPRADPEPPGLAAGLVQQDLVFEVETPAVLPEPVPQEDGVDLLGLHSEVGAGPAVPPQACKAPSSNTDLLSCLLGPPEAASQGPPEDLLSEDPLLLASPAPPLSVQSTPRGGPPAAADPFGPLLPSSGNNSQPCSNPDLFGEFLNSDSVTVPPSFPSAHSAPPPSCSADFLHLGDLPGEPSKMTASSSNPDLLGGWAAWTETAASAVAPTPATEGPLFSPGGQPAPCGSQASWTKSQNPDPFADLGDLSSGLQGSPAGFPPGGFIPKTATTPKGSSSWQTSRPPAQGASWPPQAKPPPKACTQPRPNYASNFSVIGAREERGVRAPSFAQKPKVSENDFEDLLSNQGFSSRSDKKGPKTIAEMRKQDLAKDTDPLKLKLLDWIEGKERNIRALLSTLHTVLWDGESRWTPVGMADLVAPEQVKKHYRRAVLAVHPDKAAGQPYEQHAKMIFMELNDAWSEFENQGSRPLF

COc1cc(N2CCN(C)CC2)ccc1Nc1ncc2c(n1)N(C)c1ccccc1C(=O)N2
kinase still bound, per cent of control [1]: 3.9%
kinase still bound, per cent of control [2]: 8%
kinase still bound, per cent of control [3]: 28%
pKd [4]: 6.48
kinase still bound, per cent of control ([4]; compound 10.0 µM): 1%
pKd [5]: 6.55
kinase still bound, per cent of control ([5]; compound 10.0 µM): 0.9%
pKd [6]: 6.16
kinase still bound, per cent of control ([6]; compound 10.0 µM): 1.4%
kinase still bound, per cent of control [7]: 34%
pKd [8]: 7.02
kinase still bound, per cent of control ([8]; compound 10.0 µM): 0.8%
pKd [9]: 6.57
kinase still bound, per cent of control ([9]; compound 10.0 µM): 3.8%
kinase still bound, per cent of control [10]: 12%
kinase still bound, per cent of control [11]: 22%
pKd [12]: 6.17
kinase still bound, per cent of control ([12]; compound 10.0 µM): 0.5%
kinase still bound, per cent of control [13]: 27%
kinase still bound, per cent of control [14]: 2.2%
kinase still bound, per cent of control [15]: 29%
kinase still bound, per cent of control [16]: 29%
kinase still bound, per cent of control [17]: 8.2%
kinase still bound, per cent of control [18]: 21%
kinase still bound, per cent of control [19]: 22%
kinase still bound, per cent of control [20]: 32%
pKd [21]: 7.43
kinase still bound, per cent of control ([21]; compound 10.0 µM): 0.15%
kinase still bound, per cent of control [22]: 24%
kinase still bound, per cent of control [23]: 17%
kinase still bound, per cent of control [24]: 21%
kinase still bound, per cent of control [25]: 14%
kinase still bound, per cent of control [26]: 31%
kinase still bound, per cent of control [27]: 18%
pKd [28]: 6.96
kinase still bound, per cent of control ([28]; compound 10.0 µM): 2.4%
kinase still bound, per cent of control [29]: 0.3%
